Several values for one entry are separate records, joined by “and”; a condition that tells them apart may be missing. Equal entries are not always repeated. Inconclusive results and toxic doses are left out. The calls were made as follows: active = survival T/C of 150% or more; inactive = T/C below 125% in these data. Square brackets hold non-standard residues; d marks the D form. Peptide text beside a SMILES is read from it. * marks the point of attachment. Cbz = O=C(OCc1ccccc1)*; Nva = CCC[CH](N)C(=O)O
System: P388 leukemia ip, CD2F1 mice, survival T/C
Assay: NCI In Vivo Anticancer Drug Screen. Data for tumor model P388 Leukemia (intraperitoneal) in CD2F1 (CDF1) mice
Settings: endpoint: median survival time, higher = longer survival
In short: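 Mice carrying the transplanted tumor received test compound or vehicle. Survival was recorded in each group, and the value is the treated-group measurement divided by that of the vehicle-treated control group.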

[1] = dose: 50.0 mg/kg/injection, schedule: Q01DX005 (ip), vehicle: Klucel (hydroxypropylcellulose) (HPC)
[2] = dose: 100.0 mg/kg/injection, schedule: Q01DX005 (ip), vehicle: Klucel (hydroxypropylcellulose) (HPC)
[3] = dose: 200.0 mg/kg/injection, schedule: Q01DX005 (ip), vehicle: Klucel (hydroxypropylcellulose) (HPC)
[4] = dose: 50.0 mg/kg/injection, schedule: Q01DX009 (ip), vehicle: saline with Tween-80
[5] = dose: 100.0 mg/kg/injection, schedule: Q01DX009 (ip), vehicle: saline with Tween-80
[6] = dose: 200.0 mg/kg/injection, schedule: Q01DX009 (ip), vehicle: saline with Tween-80
[7] = dose: 60.0 mg/kg/injection, schedule: Q01DX005 (ip), vehicle: saline with Tween-80
[8] = dose: 120.0 mg/kg/injection, schedule: Q01DX005 (ip), vehicle: saline with Tween-80
[9] = dose: 240.0 mg/kg/injection, schedule: Q01DX005 (ip), vehicle: saline with Tween-80
[10] = dose: 50.0 mg/kg/injection, schedule: Q01DX005 (ip), vehicle: saline with Tween-80
[11] = dose: 100.0 mg/kg/injection, schedule: Q01DX005 (ip), vehicle: saline with Tween-80
[12] = dose: 200.0 mg/kg/injection, schedule: Q01DX005 (ip), vehicle: saline with Tween-80
[13] = dose: 12.5 mg/kg/injection, schedule: Q01DX009 (ip), vehicle: Klucel (hydroxypropylcellulose) (HPC)
[14] = dose: 25.0 mg/kg/injection, schedule: Q01DX009 (ip), vehicle: Klucel (hydroxypropylcellulose) (HPC)
[15] = dose: 50.0 mg/kg/injection, schedule: Q01DX009 (ip), vehicle: Klucel (hydroxypropylcellulose) (HPC)
[16] = dose: 25.0 mg/kg/injection, schedule: Q01DX009 (ip), vehicle: saline
[17] = dose: 50.0 mg/kg/injection, schedule: Q01DX009 (ip), vehicle: saline
[18] = dose: 100.0 mg/kg/injection, schedule: Q01DX009 (ip), vehicle: saline
[19] = dose: 200.0 mg/kg/injection, schedule: Q01DX009 (ip), vehicle: saline
[20] = dose: 100.0 mg/kg/injection, schedule: Q04DX003 (ip), vehicle: saline
[21] = dose: 200.0 mg/kg/injection, schedule: Q04DX003 (ip), vehicle: saline
[22] = dose: 100.0 mg/kg/injection, schedule: Q04DX002 (ip), vehicle: saline with Tween-80
[23] = dose: 200.0 mg/kg/injection, schedule: Q04DX002 (ip), vehicle: saline with Tween-80
[24] = dose: 400.0 mg/kg/injection, schedule: Q04DX002 (ip), vehicle: saline with Tween-80

Measured: T/C

CC(O)(CC(=O)O)CC(=O)O
inactive: dose: 25.0 mg/kg/injection, schedule: Q01DX005 (ip), vehicle: water 101 % of control | dose: 50.0 mg/kg/injection, schedule: Q01DX005 (ip), vehicle: water 100 % of control | dose: 100.0 mg/kg/injection, schedule: Q01DX005 (ip), vehicle: water 95 % of control | dose: 200.0 mg/kg/injection, schedule: Q01DX005 (ip), vehicle: water 90 % of control | dose: 400.0 mg/kg/injection, schedule: Q01DX005 (ip), vehicle: water 92 % of control

CN1C2CCC1C(Br)C(=O)C2 (stereo not drawn)
inactive: dose: 50.0 mg/kg/injection, schedule: Q01DX005 (ip), vehicle: saline 100 % of control | dose: 100.0 mg/kg/injection, schedule: Q01DX005 (ip), vehicle: saline 108 % of control (2×) and 109 % of control | dose: 200.0 mg/kg/injection, schedule: Q01DX005 (ip), vehicle: saline 118 % of control

CCCC(NC(=O)OCc1ccccc1)C(=O)NC(Cc1ccccc1)C(N)=O (stereo not drawn) (Cbz-[Nva]-Phe-NH2; configuration not given here)
inactive: [1] 89 % of control | [2] 97 % of control | [3] 88 % of control

NC1=CC(=O)c2nc(-c3ccccc3N)ccc2C1=O
inactive: dose: 100.0 mg/kg/injection, schedule: Q04DX003 (ip), vehicle: Klucel (hydroxypropylcellulose) (HPC) 109 % of control | dose: 200.0 mg/kg/injection, schedule: Q04DX003 (ip), vehicle: Klucel (hydroxypropylcellulose) (HPC) 105 % of control

CCOCC1COc2c(cc3[nH]cc(C(=O)OCC)c(=O)c3c2Cl)O1 (stereo not drawn)
inactive: [4] 111 % of control | [5] 110 % of control | [6] 101 % of control

CCOC(=O)c1sc(C(=O)OCC)c2c1-c1cccc3cccc-2c13
inactive: [7] 100 % of control | [8] 99 % of control | [9] 97 % of control

O=c1ccn(C2CCCCC2)c(=O)[nH]1
inactive: dose: 6.25 mg/kg/injection, schedule: Q01DX005 (ip), vehicle: Klucel (hydroxypropylcellulose) (HPC) 99 % of control | dose: 12.5 mg/kg/injection, schedule: Q01DX005 (ip), vehicle: Klucel (hydroxypropylcellulose) (HPC) 95 % of control | dose: 25.0 mg/kg/injection, schedule: Q01DX005 (ip), vehicle: Klucel (hydroxypropylcellulose) (HPC) 91 % of control

O=C(O)/C=C\C(=O)ONCc1ccccc1
inactive: [10] 106 % of control | [11] 106 % of control | [12] 106 % of control

CC(=O)N1CCN(C(C)=O)N(C(C)=O)CCN1C(C)=O
inactive: dose: 100.0 mg/kg/injection, schedule: Q04DX003 (ip), vehicle: suspension in saline 94 % of control | dose: 200.0 mg/kg/injection, schedule: Q04DX003 (ip), vehicle: suspension in saline 97 % of control | dose: 400.0 mg/kg/injection, schedule: Q04DX003 (ip), vehicle: suspension in saline 94 % of control

FC(F)(F)c1cccc(C(Nc2nncs2)Nc2nncs2)c1
inactive: [10] 96 % of control | [11] 91 % of control | [12] 88 % of control

NC(CCl)=NCc1ccccc1
inactive: dose: 7.5 mg/kg/injection, schedule: Q01DX005 (ip), vehicle: saline 99 % of control | dose: 15.0 mg/kg/injection, schedule: Q01DX005 (ip), vehicle: saline 96 % of control | dose: 30.0 mg/kg/injection, schedule: Q01DX005 (ip), vehicle: saline 111 % of control

COc1ccc2nc(C)cc(N/N=C/c3cccc(C)n3)c2c1
inactive: [13] 99 % of control and 104 % of control | [14] 99 % of control and 105 % of control | [15] 113 % of control and 122 % of control

CC(=O)OCc1ccc[n+]([O-])c1
inactive: [16] 99 % of control and 96 % of control | [17] 99 % of control and 103 % of control | [18] 99 % of control and 103 % of control | [19] 99 % of control and 86 % of control | dose: 400.0 mg/kg/injection, schedule: Q01DX009 (ip), vehicle: saline 99 % of control and 109 % of control

Cc1cc(C)n(-c2ccc([N+](=O)[O-])cn2)n1
inactive: [20] 99 % of control | [21] 96 % of control | dose: 400.0 mg/kg/injection, schedule: Q04DX003 (ip), vehicle: saline 99 % of control

CCOC(=O)C(CCc1ccccn1)C(C)=O (stereo not drawn)
inactive: [7] 94 % of control | [8] 98 % of control | [9] 98 % of control

O=[N+]([O-])c1cnc(Sc2ncc([N+](=O)[O-])cn2)nc1
inactive: dose: 60.0 mg/kg/injection, schedule: Q01DX005 (ip), vehicle: saline 99 % of control | dose: 120.0 mg/kg/injection, schedule: Q01DX005 (ip), vehicle: saline 102 % of control | dose: 240.0 mg/kg/injection, schedule: Q01DX005 (ip), vehicle: saline 99 % of control

COn1nnc2ccccc21
inactive: [4] 99 % of control | [5] 104 % of control | [6] 92 % of control

CSC(=S)/C=C(\O)c1ccccc1
inactive: [20] 95 % of control | [21] 104 % of control

CC(=O)c1c(-c2ccc(-c3c[nH]c(C)c3C(C)=O)cc2)c[nH]c1C
inactive: [22] 95 % of control | [23] 91 % of control | [24] 91 % of control

CC1(C)OC1CCl (stereo not drawn)
inactive: [17] 107 % of control | [18] 102 % of control | [19] 101 % of control

COc1ccc(C(C)(C)c2cc3c(cc2OC)OCO3)cc1
inactive: [7] 104 % of control | [8] 116 % of control

Cn1c(=O)c2c(-c3ccccc3)cc(-c3ccccc3)nc2n(C)c1=O
inactive: [22] 97 % of control | [23] 100 % of control | [24] 101 % of control

COCCOC(=O)C1=C(O)c2ccccc2S(=O)(=O)N1C
inactive: dose: 60.0 mg/kg/injection, schedule: Q01DX005 (ip), vehicle: Klucel (hydroxypropylcellulose) (HPC) 106 % of control | dose: 120.0 mg/kg/injection, schedule: Q01DX005 (ip), vehicle: Klucel (hydroxypropylcellulose) (HPC) 109 % of control | dose: 240.0 mg/kg/injection, schedule: Q01DX005 (ip), vehicle: Klucel (hydroxypropylcellulose) (HPC) 120 % of control

CC(CN(C)C)OC(=O)C1(c2ccccc2)CCOc2ccccc21 (stereo not drawn)
inactive: [7] 108 % of control | [8] 108 % of control | [9] 109 % of control

C=C1CC2(CCCCC2C(C)(C)C)OC1=O (stereo not drawn)
inactive: dose: 100.0 mg/kg/injection, schedule: Q04DX002 (ip), vehicle: saline 100 % of control | dose: 200.0 mg/kg/injection, schedule: Q04DX002 (ip), vehicle: saline 99 % of control | dose: 400.0 mg/kg/injection, schedule: Q04DX002 (ip), vehicle: saline 99 % of control

NS(=O)(=O)/C(Br)=C/c1ccccc1
inactive: [4] 90 % of control | [5] 118 % of control | [6] 98 % of control

CCN(CC)c1cc(C)c(Cc2c(OC)ccc3ccccc23)cc1C
inactive: [1] 92 % of control | [2] 92 % of control | [3] 99 % of control

CNC(=O)Nc1ccncc1
inactive: dose: 12.5 mg/kg/injection, schedule: Q01DX009 (ip), vehicle: saline 112 % of control | [16] 102 % of control | [17] 100 % of control

Cn1cnc2cc(Cl)c([N+](=O)[O-])cc2c1=O
inactive: dose: 100.0 mg/kg/injection, schedule: Q04DX002 (ip), vehicle: Klucel (hydroxypropylcellulose) (HPC) 102 % of control | dose: 200.0 mg/kg/injection, schedule: Q04DX002 (ip), vehicle: Klucel (hydroxypropylcellulose) (HPC) 110 % of control | dose: 400.0 mg/kg/injection, schedule: Q04DX002 (ip), vehicle: Klucel (hydroxypropylcellulose) (HPC) 102 % of control

CCCN(C)N=Nc1ccccc1C(=O)O
inactive: dose: 3.12 mg/kg/injection, schedule: Q01DX009 (ip), vehicle: Klucel (hydroxypropylcellulose) (HPC) 111 % of control | dose: 6.25 mg/kg/injection, schedule: Q01DX009 (ip), vehicle: Klucel (hydroxypropylcellulose) (HPC) 91 % of control | [13] 110 % of control | [14] 110 % of control | [15] 105 % of control

— PubChem BioAssay AID330 (DTP/NCI, 2004)
